Measurements from PubChem BioAssay (NCI).
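Following 48 hours of exposure in 96-well plates, responses at five concentrations were used to interpolate endpoints linearly. The concentration for full growth arrest is given as TGI.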

Columns and labels:
Experiment in all cases: inhibition of tumour cell growth, NCI panel, 48 h
CCRF-CEM leukemia = system: CCRF-CEM leukemia
RXF 393 renal = system: RXF 393 renal
EKVX NSCLC = system: EKVX NSCLC
A498 renal = system: A498 renal
SNB-75 CNS = system: SNB-75 CNS
OVCAR-5 ovarian = system: OVCAR-5 ovarian
MDA-MB-231 breast = system: MDA-MB-231 breast
KM12 colon = system: KM12 colon
CAKI-1 renal = system: CAKI-1 renal
COLO 205 colon = system: COLO 205 colon
BT-549 breast = system: BT-549 breast
OVCAR-8 ovarian = system: OVCAR-8 ovarian
M14 melanoma = system: M14 melanoma
SR leukemia = system: SR leukemia

Row | Structure (SMILES) | TGI (CCRF-CEM leukemia) [µM] | TGI (RXF 393 renal) [µM] | TGI (EKVX NSCLC) [µM] | TGI (A498 renal) [µM] | TGI (SNB-75 CNS) [µM] | TGI (OVCAR-5 ovarian) [µM] | TGI (MDA-MB-231 breast) [µM] | TGI (KM12 colon) [µM] | TGI (CAKI-1 renal) [µM] | TGI (COLO 205 colon) [µM] | TGI (BT-549 breast) [µM] | TGI (OVCAR-8 ovarian) [µM] | TGI (M14 melanoma) [µM] | TGI (SR leukemia) [µM]
1 | CCOC(=O)C(C)c1nc2cc(C(F)(F)F)ccc2[nH]c1=O (centres undefined) | > 100 | > 100 | > 100 | > 100 | > 100 | > 100 | > 100 | > 100 | > 100 | > 100 | > 100 | > 100 | > 100 | 
2 | O=c1[nH]c2cc3[nH]c(=O)c(=O)[nH]c3cc2[nH]c1=O | > 100 | > 100 | > 100 | > 100 | > 100 | > 100 | > 100 | > 100 | > 100 | > 100 | > 100 | > 100 | > 100 | 
3 | O=C1CC2(CCNCC2)C(=O)N1N1CCCCC1 | > 100 | > 100 | > 100 | > 100 | > 100 | > 100 | > 100 | > 100 | > 100 | > 100 | > 100 | > 100 | > 100 | > 100
4 | CC(C(=O)O)C1Nc2ccccc2NC1=O (centres undefined) | > 100 | > 100 | > 100 | > 100 | > 100 | > 100 | > 100 | > 100 | > 100 | > 100 | > 100 | > 100 | > 100 | > 100
5 | COC(=O)C1Cc2c([nH]c3ccccc23)-c2[nH]c3ccccc3c2CC(NC(C)=O)C(=O)NCC(=O)NCC(=O)N1 (centres undefined) | > 100 | > 100 | > 100 | > 100 | > 100 | > 100 | > 100 | > 100 | > 100 | > 100 | > 100 | > 100 | > 100 | 
6 | COc1ccc(OC)c([N+](=O)[O-])c1-c1nc2sc(C)c(C)n2c1/C=N/N=C(N)N | > 100 | > 100 | > 100 | > 100 |  | > 100 | > 100 | 50.9 | > 100 | > 100 | 57.7 | > 100 | > 100 | > 100
7 | COc1ccc(OC2OC(CO)C(O)C(O)C2O)cc1 (centres undefined) | > 100 |  | > 100 | > 100 | > 100 | > 100 | > 100 | > 100 | > 100 | > 100 | > 100 | > 100 | > 100 | > 100
8 | CC(C)=CC[C@H]1C[C@@]2(CC=C(C)C)C(=O)/C(=C(/O)c3ccccc3)C(=O)[C@](CC=C(C)C)(C2=O)C1(C)C |  | 24.1 | 20 | 26.3 | 33.4 | 19.5 | 22.3 | 19.9 | 28.9 |  | 35 | 35 | 25.2 | > 100
9 | C=C(C)CCN(C(=O)OC(C)(C)C)c1cc(C(C)C)co1 | > 100 |  | > 100 | > 100 |  | > 100 | > 100 | > 100 | > 100 | > 100 | > 100 | > 100 | > 100 | > 100
10 | Cc1ccc(/C=C2\CCCCCC2=O)cc1 | > 100 |  | > 100 | > 100 | > 100 | > 100 | > 100 | > 100 | > 100 | > 100 | > 100 |  | > 100 | > 100
11 | CC(C)(C)CN1[C@@H]2CCCC[C@H]2N(CC(C)(C)C)P1(=O)C(O)/C=C/c1ccccc1 (some centres undefined) | > 100 | > 100 | > 100 | 89.8 | > 100 | > 100 | > 100 | > 100 | > 100 | 34.2 | > 100 | > 100 | > 100 | 
12 | O=S1(=O)c2ccccc2-c2nccc3ccnc1c23 | > 100 | > 100 | > 100 | 84.4 | 83.7 | > 100 | 95.7 | > 100 | 85.9 | 65.8 | 35.4 | > 100 | > 100 | 
13 | CC(C)(C)OC(=O)NC(Cc1ccc(OCc2ccccc2)cn1)C(=O)O (centres undefined) |  | > 100 | > 100 | > 100 |  | > 100 | > 100 | > 100 | > 100 | > 100 | > 100 | > 100 |  | > 100
14 | COC(=O)/C(C#N)=C(/NCc1ccccc1)Nc1ccccc1 |  | > 100 | > 100 | > 100 | > 100 | > 100 | > 100 |  | > 100 | > 100 | > 100 | > 100 | > 100 | > 100
15 | COc1cc(/C=C2\CC(C)C/C(=C\c3ccc(O)c(OC)c3)C2=O)ccc1O (centres undefined) | > 45 | 7.56 | 28.1 | 9.61 | 15 | 40.8 | 8.35 | 3.86 |  | 24.7 | 12.3 | 32.4 | 8.22 | > 25.5
16 | COC1=CC(=O)c2c(n[nH]c2CCNC(=O)OCc2ccccc2)C1=O |  |  | 32 | 32.7 |  | 32.1 | 31.3 | 22.9 |  | 33.9 | 32.5 | 44.3 | 26.7 | 65.5
17 | CC(C)(C)OC(=O)NC(Cc1ccc(OCc2ccccc2)cn1)C(N)=O (centres undefined) | > 100 | > 100 | > 100 | > 100 | > 100 | > 100 | > 100 | > 100 | > 100 | > 100 | > 100 | > 100 |  | > 100
